Measurements from US11491192B2, “Treatment and prevention of pathogenic bacterial overgrowth using butyrate-producing bacteria” (THE CLEVELAND CLINIC FOUNDATION, priority 2018, dated 2022).

Key:
[1] = tested on: C. difficile; assay: Brucella broth dilution MIC of common antibiotics; assay type: cell-based, Clostridium difficile; settings: unit assumed
[2] = tested on: F. prausnitzii; assay: Brucella broth dilution MIC of common antibiotics; assay type: cell-based, Faecalibacterium prausnitzii; settings: unit assumed
Experimental: This strain was chosen because it was isolated from human feces, and based on its ability to hydrolyze PS, yield butyrate, and utilize lactate. Belenguer et al., Applied Environmental Microbiology, 72:3593-3599 (2006) Bacteria was grown in conditions and medium as recommended by ATCC, briefly at 37° C. in anaerobic gas biological mix of 80% nitrogen, 10% carbon dioxide, 10% hydrogen, ATCC pre-reduced chopped meat broth (ATCC 1703). Overnight culture of FP was lyophilized on […] system and reconstituted in pre-reduced sterile phosphate buffered saline (PBS) just prior to treatment. Brucella broth dilution MIC of common antibiotics for FP and CD strains were determined using standard methods for susceptibility testing of anaerobic bacteria (Table 1).

[3] = tested on: sodium-coupled butyrate transporter, butyrate receptor, tight junction proteins and NHE3; settings: supplementation during broad spectrum antibiotic treatment in mice; Cresci et al. 2013; cited from earlier work
[4] = Brucella broth dilution, CD strain used in this study (VA17)
[5] = Brucella broth dilution, FP strain used in this study (ATCC 27766)

Molecule	C. difficile MIC [1, 4] [µg/mL]	F. prausnitzii MIC [2, 5] [µg/mL]	further results
CO[C@@]1(NC(=O)Cc2cccs2)C(=O)N2C(C(=O)O)=C(COC(N)=O)CS[C@@H]21 [Cefoxitin]	250	< 2	–
CCC[C@@H]1C[C@@H](C(=O)N[C@@H]([C@H]2O[C@H](SC)[C@H](O)[C@@H](O)[C@H]2O)[C@H](C)Cl)N(C)C1 [Clindamycin]	500	–	–
Cc1ncc([N+](=O)[O-])n1CCO [Metronidazole]	< 2	< 2	–
CN[C@H](CC(C)C)C(=O)N[C@H]1C(=O)N[C@@H](CC(N)=O)C(=O)N[C@H]2C(=O)N[C@H]3C(=O)N[C@H](C(=O)N[C@H](C(=O)O)c4cc(O)cc(O)c4-c4cc3ccc4O)[C@H](O)c3ccc(c(Cl)c3)Oc3cc2cc(c3O[C@@H]2O[C@H](CO)[C@@H](O)[C@H](O)[C@H]2O[C@H]2C[C@](C)(N)[C@H](O)[C@H](C)O2)Oc2ccc(cc2Cl)[C@H]1O [Vancomycin]	–	–	C. difficile MIC [1]: < 2 µg/mL; F. prausnitzii MIC [2]: < 2 µg/mL
CCCC(=O)OCC(COC(=O)CCC)OC(=O)CCC [tributyrin]	–	–	intestinal losses of sodium-coupled butyrate transporter, butyrate receptor, tight junction proteins and NHE3 [3]: protects against intestinal losses
Piperacillin/Tazaba	15.6	8	–
